# Data from paper PMC9518264, “Design and synthesis of novel quinazolinone-based derivatives as EGFR inhibitors with antitumor activity” (Journal of Enzyme Inhibition and Medicinal Chemistry, 2022).
# What was measured:
# [1] = system: MDA-MB-435; experiment: cells; assay type: cell-based; conditions: Homo sapiens; MDA-MB-435; 10 μM; read-out: growth inhibition % (GI%)
# [2] = system: PC-3; experiment: cells; assay type: cell-based; conditions: Homo sapiens; PC-3; 10 μM; read-out: growth inhibition % (GI%)
# [3] = system: HOP-62; experiment: cells; assay type: cell-based; conditions: Homo sapiens; HOP-62; 10 μM; read-out: growth inhibition % (GI%)
# [4] = system: A549/ATCC; experiment: cells; assay type: cell-based; conditions: Homo sapiens; A549/ATCC; 10 μM; read-out: growth inhibition % (GI%)
# [5] = system: SF-539; experiment: cells; assay type: cell-based; conditions: Homo sapiens; SF-539; 10 μM; read-out: growth inhibition % (GI%)
# [6] = system: MDA-MB-231/ATCC; experiment: NCI 60 cell line antiproliferative screening (SRB), Breast cancer; assay type: cell-based; conditions: Homo sapiens, MDA-MB-231, read-out: growth inhibition % (GI%)
# [7] = system: U251; experiment: cells; assay type: cell-based; conditions: Homo sapiens, U-251; U251; 10 μM; read-out: growth inhibition % (GI%)
# [8] = system: 786-0; experiment: cells; assay type: cell-based; conditions: Homo sapiens; 786-0; 10 μM; read-out: growth inhibition % (GI%)
# [9] = system: DU-145; experiment: cells; assay type: cell-based; conditions: Homo sapiens; DU-145; 10 μM; read-out: growth inhibition % (GI%)
# [10] = system: SNB-19; experiment: cells; assay type: cell-based; conditions: Homo sapiens; SNB-19; 10 μM; read-out: growth inhibition % (GI%)
# [11] = system: NCI-H460; experiment: cells; assay type: cell-based; conditions: Homo sapiens; NCI-H460; 10 μM; read-out: growth inhibition % (GI%)
# [12] = system: KM12; experiment: cells; assay type: cell-based; conditions: Homo sapiens; KM12; 10 μM; read-out: growth inhibition % (GI%)
# [13] = system: NCI-H522; experiment: cells; assay type: cell-based; conditions: Homo sapiens; NCI-H522; 10 μM; read-out: growth inhibition % (GI%)
# [14] = system: T-47D; experiment: cells; assay type: cell-based; conditions: Homo sapiens, T47D; T-47D; 10 μM; read-out: growth inhibition % (GI%)
# [15] = system: HT29; experiment: cells; assay type: cell-based; conditions: Homo sapiens, HT-29; HT29; 10 μM; read-out: growth inhibition % (GI%)
# [16] = system: SK-MEL-2; experiment: cells; assay type: cell-based; conditions: Homo sapiens; SK-MEL-2; 10 μM; read-out: growth inhibition % (GI%)
# [17] = system: HL-60(TB); experiment: cells; assay type: cell-based; conditions: Homo sapiens; HL-60(TB); 10 μM; read-out: growth inhibition % (GI%)
# [18] = system: UACC-62; experiment: cells; assay type: cell-based; conditions: Homo sapiens; UACC-62; 10 μM; read-out: growth inhibition % (GI%)
# [19] = system: COLO-205; experiment: cells; assay type: cell-based; conditions: Homo sapiens; COLO-205; 10 μM; read-out: growth inhibition % (GI%)
# [20] = system: panel of 60 tumour cell lines; experiment: NCI 60 cell line antiproliferative screening (SRB), whole panel or subpanels (means, ranges, words); assay type: cell-based, human
# [21] = system: HCT-116; experiment: cells; assay type: cell-based; conditions: Homo sapiens; HCT-116; 10 μM; read-out: growth inhibition % (GI%)
# [22] = system: MDA-MB-468; experiment: NCI 60 cell line antiproliferative screening (SRB), Breast cancer; conditions: Homo sapiens, MDA-MB-468, read-out: growth inhibition % (GI%)
# [23] = system: TK-10; experiment: cells; assay type: cell-based; conditions: Homo sapiens; TK-10; 10 μM; read-out: growth inhibition % (GI%)
# [24] = system: HCT-15; experiment: cells; assay type: cell-based; conditions: Homo sapiens; HCT-15; 10 μM; read-out: growth inhibition % (GI%)
# [25] = system: OVCAR-4; experiment: cells; assay type: cell-based; conditions: Homo sapiens; OVCAR-4; 10 μM; read-out: growth inhibition % (GI%)
# [26] = system: BT-549; experiment: cells; assay type: cell-based; conditions: Homo sapiens; BT-549; 10 μM; read-out: growth inhibition % (GI%)
# [27] = system: RPMI-8226; experiment: cells; assay type: cell-based; conditions: Homo sapiens; RPMI-8226; 10 μM; read-out: growth inhibition % (GI%)
# [28] = system: SK-OV-3; experiment: cells; assay type: cell-based; conditions: Homo sapiens; SK-OV-3; 10 μM; read-out: growth inhibition % (GI%)
# [29] = system: OVCAR-3; experiment: NCI 60 cell line antiproliferative screening (SRB), Ovarian cancer; conditions: Homo sapiens, OVCAR-3, read-out: growth inhibition % (GI%)
# [30] = system: MOLT-4; experiment: cells; assay type: cell-based; conditions: Homo sapiens; MOLT-4; 10 μM; read-out: growth inhibition % (GI%)
# [31] = system: SR; experiment: cells; assay type: cell-based; conditions: Homo sapiens, 10 μM, read-out: growth inhibition % (GI%)
# [32] = system: IGROV1; experiment: cells; assay type: cell-based; conditions: Homo sapiens, IGROV-1; IGROV1; 10 μM; read-out: growth inhibition % (GI%)
# [33] = system: NCI-H322M; experiment: cells; assay type: cell-based; conditions: Homo sapiens, 10 μM, read-out: growth inhibition % (GI%)
# [34] = system: SK-MEL-28; experiment: cells; assay type: cell-based; conditions: Homo sapiens; SK-MEL-28; 10 μM; read-out: growth inhibition % (GI%)
# [35] = system: SNB-75; experiment: cells; assay type: cell-based; conditions: Homo sapiens; SNB-75; 10 μM; read-out: growth inhibition % (GI%)
# [36] = system: HCC-2998; experiment: cells; assay type: cell-based; conditions: Homo sapiens; HCC-2998; 10 μM; read-out: growth inhibition % (GI%)
# [37] = system: LOX IMIV; experiment: cells; assay type: cell-based; conditions: Homo sapiens, 60 cell; LOX IMIV; 10 μM; read-out: growth inhibition % (GI%)
# [38] = system: NCI/ADR-RES; experiment: cells; assay type: cell-based; conditions: Homo sapiens, 10 μM, read-out: growth inhibition % (GI%)
# [39] = system: UACC-257; experiment: cells; assay type: cell-based; conditions: Homo sapiens; UACC-257; 10 μM; read-out: growth inhibition % (GI%)
# [40] = system: MCF7; experiment: cells; assay type: cell-based; conditions: Homo sapiens; MCF7; 10 μM; read-out: growth inhibition % (GI%)
# [41] = system: OVCAR-5; experiment: cells; assay type: cell-based; conditions: Homo sapiens; OVCAR-5; 10 μM; read-out: growth inhibition % (GI%)
# [42] = system: NCI-H226; experiment: cells; assay type: cell-based; conditions: Homo sapiens; NCI-H226; 10 μM; read-out: growth inhibition % (GI%)
# [43] = system: HOP-92; experiment: cells; assay type: cell-based; conditions: Homo sapiens; HOP-92; 10 μM; read-out: growth inhibition % (GI%)
# [44] = system: EKVX; experiment: cells; assay type: cell-based; conditions: Homo sapiens, 10 μM, read-out: growth inhibition % (GI%)
# [45] = system: HS 578T; experiment: cells; assay type: cell-based; conditions: Homo sapiens; HS 578T; 10 μM; read-out: growth inhibition % (GI%)
# [46] = system: A498; experiment: cells; assay type: cell-based; conditions: Homo sapiens; A498; 10 μM; read-out: growth inhibition % (GI%)
smiles,measurement,setting,value
"COc1ccc(Oc2ccc(C=NNC(=O)CSc3nc4ccccc4c(=O)n3-c3ccccc3)cc2)cc1 [6c, N'-(4–(4-methoxyphenoxy)benzylidene)-2-((4-oxo-3-phenyl-3,4-dihydroquinazolin-2-yl)thio)acetohydrazide]",inhibition at 10 µM,[1],< 15%
same,inhibition at 10 µM,[2],< 15%
same,inhibition at 10 µM,[3],< 15%
same,inhibition at 10 µM,[4],< 15%
same,inhibition at 10 µM,[5],< 15%
same,inhibition at 10 µM,[6],< 15%
same,inhibition at 10 µM,[7],< 15%
same,inhibition at 10 µM,[8],< 15%
same,inhibition at 10 µM,[9],< 15%
same,inhibition at 10 µM,[10],< 15%
same,inhibition at 10 µM,[11],< 15%
same,inhibition at 10 µM,[12],< 15%
same,inhibition at 10 µM,[13],< 15%
same,inhibition at 10 µM,[14],< 15%
same,inhibition at 10 µM,[15],< 15%
same,inhibition at 10 µM,[16],< 15%
same,inhibition at 10 µM,[17],< 15%
same,inhibition at 10 µM,[18],< 15%
same,inhibition at 10 µM,[19],< 15%
same,antiproliferative activity against all tested cell lines,[20]; 10 μM single dose,no activity
same,inhibition at 10 µM,"[20]; Homo sapiens, 60 cell, mean over the cell line panel, 10 μM, read-out: Mean growth inhibition % (mean GI%)",0%
same,Mean growth inhibition % (mean GI%),"[20]; mean over the cell line panel, 10 μM",< 0%
same,inhibition at 10 µM,[21],< 15%
same,inhibition at 10 µM,[22],< 15%
same,inhibition at 10 µM,[23],< 15%
same,inhibition at 10 µM,[24],< 15%
same,inhibition at 10 µM,[25],< 15%
same,inhibition at 10 µM,[26],< 15%
same,inhibition at 10 µM,[27],< 15%
same,inhibition at 10 µM,[28],< 15%
same,inhibition at 10 µM,[29],< 15%
same,inhibition at 10 µM,[30],< 15%
same,inhibition at 10 µM,[31],< 15%
same,inhibition at 10 µM,[32],< 15%
same,inhibition at 10 µM,[33],< 15%
same,inhibition at 10 µM,[34],< 15%
same,inhibition at 10 µM,[35],< 15%
same,inhibition at 10 µM,[36],< 15%
same,inhibition at 10 µM,[37],< 15%
same,inhibition at 10 µM,[38],< 15%
same,inhibition at 10 µM,[39],< 15%
same,inhibition at 10 µM,[40],< 15%
same,inhibition at 10 µM,[41],< 15%
same,inhibition at 10 µM,[42],< 15%
same,inhibition at 10 µM,[43],< 15%
same,inhibition at 10 µM,[44],< 15%
same,inhibition at 10 µM,[45],< 15%
same,inhibition at 10 µM,[46],17.2%
